Experimental data from ChEMBL document CHEMBL1921720, “A new antifungal briarane diterpenoid from the gorgonian Junceella juncea Pallas” (2011).
Active and inactive are the calls of the source. No cut-off for these calls is given here.

What was measured:
Format in all cases: functional
[1] = system: Aspergillus niger; assay: Antifungal activity against Aspergillus niger at 200 ug/mL after 48 hrs by agar cup diffusion assay; conditions: for zone of inhibition at 200 µg/mL: read-out: DIZ
[2] = system: Bacillus subtilis; assay: Antibacterial activity against Bacillus subtilis at 200 ug/mL after 24 hrs by agar cup diffusion method; conditions: for zone of inhibition at 200 µg/mL: read-out: DIZ
[3] = system: Escherichia coli; assay: Antibacterial activity against Escherichia coli at 200 ug/mL after 24 hrs by agar cup diffusion method; conditions: for zone of inhibition at 200 µg/mL: read-out: DIZ
[4] = system: Proteus vulgaris; assay: Antibacterial activity against Proteus vulgaris at 200 ug/mL after 24 hrs by agar cup diffusion method; conditions: for zone of inhibition at 200 µg/mL: read-out: DIZ
[5] = system: Candida albicans; assay: Antifungal activity against Candida albicans at 200 ug/mL after 48 hrs by agar cup diffusion assay; conditions: for zone of inhibition at 200 µg/mL: read-out: DIZ
[6] = system: Penicillium chrysogenum; assay: Antifungal activity against Penicillium chrysogenum at 200 ug/mL after 48 hrs by agar cup diffusion assay
[7] = system: Bacillus pumilus; assay: Antibacterial activity against Bacillus pumilus at 200 ug/mL after 24 hrs by agar cup diffusion method; conditions: for zone of inhibition at 200 µg/mL: read-out: DIZ

SMILES | zone of inhibition at 200 µg/mL [1] | diameter of the inhibition zone (DIZ) [2] | diameter of the inhibition zone (DIZ) [3] | diameter of the inhibition zone (DIZ) [4] | zone of inhibition at 200 µg/mL [5] | diameter of the inhibition zone (DIZ) [6] | diameter of the inhibition zone (DIZ) [7] | zone of inhibition at 200 µg/mL [2] | zone of inhibition at 200 µg/mL [3] | zone of inhibition at 200 µg/mL [4] | zone of inhibition at 200 µg/mL [7] | diameter of the inhibition zone (DIZ) [1] | diameter of the inhibition zone (DIZ) [5] | zone of inhibition at 200 µg/mL ([6]; read-out: DIZ)
CC(=O)N1CCN(c2ccc(OCC3COC(Cn4ccnc4)(c4ccc(Cl)cc4Cl)O3)cc2)CC1 (centres undefined) [KETOCONAZOLE] | 24 mm | inactive | inactive | inactive | 21 mm | inactive | inactive |  |  |  |  |  |  | 
C=C1CC[C@H](OC(C)=O)[C@@]2(C)[C@@H](OC(C)=O)[C@@H](OC(C)=O)[C@@H](OC(C)=O)[C@]3(CO3)[C@@H]2[C@H](OC(C)=O)[C@]2(O)[C@@H](C)C(=O)O[C@H]2[C@H]1Cl [GEMMACOLIDE A] | 10 mm |  |  |  | 8 mm | inactive |  | 10 mm | 20 mm | 12 mm | 19 mm |  |  | 
CC1(C)S[C@@H]2[C@H](NC(=O)[C@H](N)c3ccccc3)C(=O)N2[C@H]1C(=O)O [AMPICILLIN] |  |  |  |  |  | inactive |  | 17 mm | 17 mm | 16 mm | 18 mm | inactive | inactive | 
CC(=O)OCC1=C/[C@@H]2OC(=O)[C@H](C)[C@@]2(O)[C@@H](OC(C)=O)[C@H]2[C@@]3(CO3)[C@H](OC(=O)CC(C)C)C[C@H](OC(=O)CC(C)C)[C@]2(C)[C@@H](OC(C)=O)/C=C\1 [JUNCIN K] | 8 mm |  |  |  |  | inactive |  | 13 mm | 15 mm | 14 mm | 13 mm |  | inactive | 
C=C1CC[C@H](OC(C)=O)[C@@]2(C)[C@@H](OC(C)=O)[C@@H](OC(=O)CC(C)C)[C@@H](OC(C)=O)[C@]3(CO3)[C@@H]2[C@H](OC(C)=O)[C@]2(O)[C@@H](C)C(=O)O[C@H]2[C@H]1Cl [GEMMACOLIDE B] | 10 mm |  |  |  | 8 mm | inactive |  | 10 mm | 20 mm | 12 mm | 19 mm |  |  | 
C=C1CC[C@H](OC(C)=O)[C@@]2(C)[C@@H](OC(=O)CC(C)C)C[C@@H](OC(C)=O)[C@]3(CO3)[C@@H]2[C@H](OC(C)=O)[C@]2(O)[C@@H](C)C(=O)O[C@H]2[C@H]1Cl [JUNCIN H] | 6 mm |  |  |  |  | inactive |  | 12 mm | 14 mm | 13 mm | 10 mm |  | inactive | 
C=C1CC[C@H](OC(C)=O)[C@@]2(C)[C@@H](OC(=O)CC(C)C)C[C@@H](OC(C)=O)[C@]3(CO3)[C@@H]2[C@H](OC(C)=O)[C@@]2(O)[C@H](C1)OC(=O)[C@@H]2C | 18 mm | inactive | inactive | inactive | 17 mm |  | inactive |  |  |  |  |  |  | 16 mm
